# According to US11815435B2, “Beta glucan immunopharmacodynamics” (HiberCell, Inc., priority 2017, dated 2023):
# Experiments:
# Format in all cases: in vivo, human
# [1] = system: complement activation products, C5a and SC5b-9; experiment: Complement activation in plasma by ELISA after IV PGG; settings: healthy subjects, single dose PGG IV
# Description: (§1) IPD changes induced by yeast soluble β-glucan were evaluated in a Phase I healthy donor trial, which included three cohorts of 12 healthy human volunteers aged 18-65 years. In Cohort 1, subjects were administered a single dose of 4 mg/kg yeast soluble β-glucan by IV infusion over 2-3 hours. In Cohort 2, subjects were administered 4 mg/kg PGG by IV infusion over 2-3 hours once weekly for 3 weeks. Half of the subjects received premedications which included low dose corticosteroids (4 mg of dexamethasone, PO) and low-dose H1 antagonists (50 mg diphenhydramine.
# (§2) Subjects were stratified/classified into subgroups based on pre-infusion ABA levels. ABA cutoff levels were selected based on prior studies and are only exemplary. Classification may include only 2 subgroups based on an IgG ABA cutoff level of 15 μg/ml, 20 μg/ml, 25, μg/ml, 30 μg/ml, 35 μg/ml, 40 μg/ml, 45 μg/ml or 50 μg/ml. […] Serum and cellular IPD markers were analyzed pre-infusion, 15 minutes, 30 minutes and 1 hour post-infusion, end of infusion (EOI) and 1 hour, 2 hours, 3 hours, 4 hours, 24 hours, 48 hours and 168 hours after EOI.
# Levels of complement activity, measured by […] (Quidel) in plasma, were determined by measuring complement activation products, C5a and SC5b-9. Levels were measured week 1 pre-infusion, 15 minutes, 30 minutes and 1 hour post-infusion, EOL 1 hour EOI and week 2 pre-infusion. […]
# [2] = system: IL-8, MCP-1, MIP-1β; experiment: Cytokine and chemokine serum levels (multiplex, Luminex) after IV PGG
# Description: as §1
# as §2, with “μg/ml. Classification may also include 3, 4, 5 or more subgroups with each subgroup corresponding to a specific IgG ABA level range. For example, a 3 subgroup classification may include a Low-ABA subgroup encompassing ABA level ranges of <15 μg/ml, <20 μg/ml, <25 μg/ml or <30 μg/ml, a Mid-ABA subgroup encompassing a range having a low end ABA level of 20 μg/ml, 25 μg/ml, 30 μg/ml, 35 μg/ml, 40 μg/ml or 45 μg/ml and a high end ABA level of 30 μg/ml, 35 μg/ml, 40 μg/ml, 45 μg/ml, 50 μg/ml or 55 μg/ml, and a High-ABA subgroup encompassing ABA level ranges of >35 μg/ml, >40 μg/ml, >45 μg/ml, >50 μg/ml, >55 μg/ml, >60 μg/ml, >65 μg/ml or >70 μg/ml.” for “μg/ml.”
# Cytokine and chemokine serum levels were measured using Novex magnetic multiplex assay (Life Technologies) the Luminex XMAP technology. […]
# The effect of premedications on IPD responses was also evaluated. […]
# [3] = system: SC5b-9; experiment: Example 1: complement activation (SC5b-9) in the cancer subject; settings: cancer subject after conversion to High-ABA subgroup; IMPRIME PGG 4 mg/kg once every 3 weeks
# [4] = system: intermediate monocytes; switched memory B cells and plasmablasts; experiment: Flow cytometry of PBMC for monocyte populations, activation markers and B cells
# Description: Here, PBMC were stained with indicating markers and analyzed by flow cytometry. Each of the populations were assessed for expression of activation markers CD86, ICAM-1, HLA-DR and PD-L1 24 hours after infusion. In addition, approximately one week post-infusion, increased switched memory B cells and plasmablasts were detected (data not shown).
# [5] = system: anti-β-glucan antibody (IgG ABA); experiment: Anti-β-glucan antibody (ABA) levels in serum by ELISA after IV PGG, Phase I healthy donor trial; settings: for ABA level changes: single dose PGG IV
# Description: as §1
# In Cohort 3, subjects received either 2 mg/kg PGG or 4 mg/kg PGG by IV infusion over 1-2 hours. The subjects were administered either dose of PGG once weekly for 2 weeks, then given a 2 week wash out (no PGG) and finally received one more dose of PGG (week 5). Adverse events and complete blood counts were evaluated. In addition, whole blood and serum was evaluated for the following at various time points post-infusion: PGG binding to immune cells (monocytes, neutrophils, B-cells, DC subsets), complement activation (C5a and Sc5b9), serum cytokine/chemokine levels, IgG ABA levels, flow cytometry of immune cells, circulating immune complex formation and Quantigene analysis of transcriptional profile. Table 1 lists each subject's pre-dose IgG ABA levels, PGG dose and whether they received premedications.
# Subjects were stratified/classified into subgroups based on pre-infusion ABA levels. ABA cutoff levels were selected based on prior studies and are only exemplary. Classification may include only 2 subgroups based on an IgG ABA cutoff level of 15 μg/ml, 20 μg/ml, 25, μg/ml, 30 μg/ml, 35 μg/ml, 40 μg/ml, 45 μg/ml or 50 μg/ml. Classification may also include 3, 4, 5 or more subgroups with each subgroup corresponding to a specific IgG ABA level range. For example, a 3 subgroup classification may include a Low-ABA subgroup encompassing ABA level ranges of <15 μg/ml, <20 μg/ml, <25 μg/ml or <30 μg/ml, a Mid-ABA subgroup encompassing a range having a low end ABA level of 20 μg/ml, 25 μg/ml, 30 μg/ml, 35 μg/ml, 40 μg/ml or 45 μg/ml and a high end ABA level of 30 μg/ml, 35 μg/ml, 40 μg/ml, 45 μg/ml, 50 μg/ml or 55 μg/ml, and a High-ABA subgroup encompassing ABA level ranges of >35 μg/ml, >40 μg/ml, >45 μg/ml, >50 μg/ml, >55 μg/ml, >60 μg/ml, >65 μg/ml or >70 μg/ml. As discussed in International Published Application No. WO2015084732A1, various ABA cutoff levels may be used for reasons such as differences in soluble β-glucan immunotherapy treatments and preferences regarding inclusiveness and exclusiveness of subgroups. Here, subjects whose ABA levels were less than 20 μg/ml were considered Low-ABA. Subjects with ABA levels between 20 μg/ml and 50 μg/ml were considered Mid-ABA. Subjects with ABA levels greater than 50 μg/ml were High-ABA. Serum and cellular IPD markers were analyzed pre-infusion, 15 minutes, 30 minutes and 1 hour post-infusion, end of infusion (EOI) and 1 hour, 2 hours, 3 hours, 4 hours, 24 hours, 48 hours and 168 hours after EOI.
# ABA levels were then followed in subjects through single and multiple doses of PGG. ABA levels were measured in serum by ELISA, and subjects were placed in subgroups based on pre-infusion ABA levels: Low-ABA (<20 μg/mL), Mid-ABA (20-50 μg/mL) or High-ABA (>50 μg/mL). Whole blood or serum was drawn from the subjects at various time points before and after a single dose (Cohort 1) or multiple weekly doses (Cohorts 2 and 3) of PGG infusion. […] In some cases, such as shown for subject 67 in the Low-ABA subgroup, the increase may lead to a change in subgroup (Low-ABA to Mid-ABA).
# Increasing the time between soluble β-glucan doses may not only promote repeated acute IPD responses but also enhance acute IPD responses, which may increase the effectiveness of soluble β-glucan therapy. […]
substance,measurement,setting,value
"β(1,6)-[poly-(1,3)-D-glucopyranosyl]-poly-β(1,3)-D-glucopyranose [PGG]",increase in complement activation (SC5b-9 levels),[1],correlated with ABA levels with levels peaking at EOI
same,PGG-mediated cytokine induction (IL-8) with premedications,"[2]; Mid-ABA and High-ABA subjects, dexamethasone and diphenhydramine premedication vs none",dampened
same,"increases in cytokine and chemokine serum levels, especially IL-8 and MCP-1","[2]; pre-dose to end of infusion, healthy subjects",consistently detected
same,"acute IPD response in IL-8, MCP-1 and MIP-1 levels","[2]; two High-ABA subjects, weekly dosing, after week 2 infusion",acute IPD response was seen
same,complement activation (SC5b-9 levels),[3],Acute increases in complement activation
same,appearance of intermediate monocytes and activation markers,"[4]; 24 hrs after EOI, High-ABA subjects","a population of intermediate monocytes expressing higher levels of the activation markers CD86, PD-L1 and HLA-DR was observed"
same,switched memory B cells and plasmablasts,"[4]; approximately one week post-infusion, data not shown",increased
same,ABA levels over the 5 week course of treatment,"[5]; Cohort 3: weeks 1, 2, 2 week wash out, week 5 dose, High-, Mid-, Low-ABA subjects",Increases in ABA were seen in all subjects with the largest increase occurring after administration of the week 5 dose
same,ABA subgroup classification,"[5]; Cohort 3 Low-ABA subject, after the last (week 5) dose",converted to the Mid-ABA classification
same,ABA level changes,[5]; High-ABA (>50 μg/ml) healthy subjects,dropped during infusion with PGG and then rebounded about 48 hours EOI
same,ABA level changes,[5]; Low-ABA (<20 μg/ml) healthy subjects,essentially unaffected
same,ABA level changes,[5]; Mid-ABA (20-50 μg/ml) healthy subjects,increased at 48 hours after the EOI
same,ABA levels after multiple doses,[5]; multiple weekly doses of PGG (Cohorts 2 and 3),can increase ABA levels for some subjects
